Source: US9296704B2, “Substituted pyrimidines as protein kinase inhibitors” (CELGENE AVILOMICS RESEARCH, INC., priority 2007, dated 2016)

Legend:
[1] = target: T1, EGFR (WT) (Homo sapiens, UniProt P00533); test: Omnia continuous-read kinase assay, EGFR (WT); type: biochemical; conditions: read-out: EGFR inhibtion
T1 construct: purchased Invitrogen PV3872
Summary of the method: (§1)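 Enzyme pre-incubated 30 min at 27 °C with compound, then ATP/Y12-Sox peptide added; fluorescence (ex360/em485) read continuously 60 min in 20 mM Tris pH 7.5, 5 mM MgCl2, 0.2 mM DTT. WT: 5 nM enzyme, […]; T790M/L858R: 3 nM enzyme, […]. IC50 from initial velocities, variable-slope fit.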

[2] = target: BTK (Homo sapiens, UniProt Q06187); test: Omnia assay for potency against BTK; type: biochemical; conditions: read-out: BTK Inhibition
Summary of the method: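 BTK (5 nM) was pre-incubated 30 min at 27° C with serially diluted compounds in Tris pH 7.5/MgCl2 buffer, then started with […] and Y5-Sox peptide 10 mM (ATP KMapp ~36 mM). Fluorescence (ex360/em485) was read continuously over 60 min. IC50 came from initial velocities using a variable-slope fit.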

[3] = test system: BTK signaling in Ramos cells; test: BTK Ramos cellular assay (PLCγ2 phosphorylation); type: cell-based; conditions: Homo sapiens; Ramos cells, PLCγ2 phosphorylation; read-out: BTK Inhibition
Protocol: Compounds 1-13 and (I-52) were assayed in Ramos human Burkitt lymphoma cells. Ramos cells were grown in suspension in T225 flasks, spun down, resuspended in 50 mls serum-free media and incubated for 1 hour. Compound was added to Ramos cells in serum free media to a final concentration of 1, 0.1, 0.01, or 0.001 μM. Ramos cells were incubated with compound for 1 hour, washed again and resuspended in 100 ul serum-free media. Cells were then stimulated with 1 μg of goat F(ab′)2 Anti-Human IgM and incubated on ice for 10 minutes to activate B cell receptor signaling pathways. After 10 minutes, the cells were washed once with PBS and then lysed on ice with Invitrogen Cell Extraction buffer. 16 μg total protein from lysates was loaded on gels and blots were probed for phosphorylation of the BTK substrate PLCγ2. […] Additional dose response inhibition of BTK signaling with I-13 is depicted in FIG. 9.

[4] = test system: BTK in Ramos cells; test: Washout experiment with Ramos cells for BTK activity; type: cell-based, human; conditions: Ramos washout assay, 100 nM compound for 1 hour
Protocol: Ramos cells were serum starved for one hour in RPMI media+1% glutamine at 37° C. After starvation, Ramos cells were treated with 100 nM compound diluted in serum free RPMI media for 1 hour. After compound treatment, the media was removed and cells were washed with compound-free media. Subsequently, Ramos cells were washed every 2 hours and resuspended in fresh compound-free media. Cells were collected at specified timepoints, treated with 1 ug anti-human IgM (Southern Biotech cat #2022-01) for 10 minutes on ice to induce BCR signaling and then washed in PBS. Ramos cells were then lysed in Cell Extraction Buffer (Invitrogen FNN0011) supplemented with Roche complete protease inhibitor tablets (Roche 11697498001) and phosphatase inhibitors (Roche 04 906 837 001) and 18 ug total protein lysate was loaded in each lane. Inhibition of BTK kinase activity was assayed by measuring its substrate (PLCγ2) phosphorylation by western blot with phospho-specific antibodies from Cell Signaling Technologies cat#3871. FIG. 10 depicts the results of compound I-13 in the washout experiment at 0 hour, 4 hour, 6 hour, and 8 hour time points.

[5] = target: T2, JAK3 (Homo sapiens, UniProt P52333); test: Omnia assay for potency against JAK3; type: biochemical; conditions: read-out: JAK3 Inhibition
T2 sequence (P52333 1-1124): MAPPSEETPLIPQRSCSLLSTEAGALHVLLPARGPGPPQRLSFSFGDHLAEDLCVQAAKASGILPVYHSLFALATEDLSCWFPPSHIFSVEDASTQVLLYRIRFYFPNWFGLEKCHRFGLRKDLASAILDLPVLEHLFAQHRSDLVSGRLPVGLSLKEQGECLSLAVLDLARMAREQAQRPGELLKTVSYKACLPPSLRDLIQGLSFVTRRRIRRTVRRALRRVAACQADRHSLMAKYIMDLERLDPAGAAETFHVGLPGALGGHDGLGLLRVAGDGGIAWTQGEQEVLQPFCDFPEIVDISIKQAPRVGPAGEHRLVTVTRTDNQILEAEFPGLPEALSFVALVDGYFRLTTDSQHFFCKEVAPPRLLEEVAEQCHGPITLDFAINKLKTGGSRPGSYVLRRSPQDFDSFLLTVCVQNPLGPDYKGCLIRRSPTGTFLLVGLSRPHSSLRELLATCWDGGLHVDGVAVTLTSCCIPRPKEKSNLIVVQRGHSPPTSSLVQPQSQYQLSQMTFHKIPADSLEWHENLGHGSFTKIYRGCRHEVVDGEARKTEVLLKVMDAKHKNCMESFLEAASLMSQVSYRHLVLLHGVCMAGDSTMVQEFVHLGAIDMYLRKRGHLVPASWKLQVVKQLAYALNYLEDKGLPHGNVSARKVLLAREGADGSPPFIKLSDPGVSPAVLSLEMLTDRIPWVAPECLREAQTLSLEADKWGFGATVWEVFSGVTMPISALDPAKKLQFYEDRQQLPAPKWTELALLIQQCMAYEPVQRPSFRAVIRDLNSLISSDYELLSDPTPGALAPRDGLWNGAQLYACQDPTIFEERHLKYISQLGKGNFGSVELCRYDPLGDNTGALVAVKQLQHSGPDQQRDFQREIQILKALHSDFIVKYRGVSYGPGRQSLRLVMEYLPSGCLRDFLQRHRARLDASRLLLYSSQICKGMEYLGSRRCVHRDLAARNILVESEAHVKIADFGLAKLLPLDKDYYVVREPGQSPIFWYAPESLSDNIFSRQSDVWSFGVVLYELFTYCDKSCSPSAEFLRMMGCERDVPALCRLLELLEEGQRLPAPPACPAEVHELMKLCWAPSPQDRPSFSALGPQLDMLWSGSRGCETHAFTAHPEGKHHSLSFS
Summary of the method: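 Continuous-read Omnia kinase assay with 5 nM JAK3, 5 μM ATP (near apparent Km) and 5 μM Y12-Sox peptide in Tris pH 7.5/MgCl2 buffer; enzyme pre-incubated with compound 30 min at 27 °C. Fluorescence (ex360/em485) read over 60 min; initial velocities fitted against inhibitor concentration to give IC50.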

[6] = target: T3, EGFR (T790M/L858R) (Homo sapiens, UniProt P00533, L858R/T790M); test: Omnia continuous-read kinase assay, EGFR (T790M/L858R); type: biochemical; conditions: read-out: EGFR (T790M/L858R) inhibiton
T3 construct: purchased BPS Bioscience 40350
Summary of the method: as §1

[7] = target: ErbB1 (Homo sapiens, UniProt P00533); test: Z'-LYTE biochemical assay, ErbB1 kinase inhibition; conditions: for inhibition at 0.01 µM: @ 10 nM; for inhibition at 0.1 µM: @ 100 nM
Summary of the method: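 Fluorescence-based coupled-enzyme Z′-LYTE format: kinase phosphorylation of a peptide substrate is read by differential protease cleavage of phosphorylated versus non-phosphorylated peptide.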

[8] = target: ErbB2 (Homo sapiens, UniProt P04626); test: Z'-LYTE biochemical assay, ErbB2 kinase inhibition
Protocol: (§2) Compounds of the present invention were assayed as inhibitors of one or more of ErbB1, ErbB2, and/or ErbB4 in a manner substantially similar to the method described by Invitrogen Corp (Invitrogen Corporation, 1600 Faraday Avenue, Carlsbad, Calif., CA; http://www.invitrogen.com/downloads/Z-LYTE_Brochure—1205.pdf) using the Z′-LYTE™ biochemical assay procedure or similar biochemical assay. The Z′-LYTE™ biochemical assay employs a fluorescence-based, coupled-enzyme format and is based on the differential sensitivity of phosphorylated and non-phosphorylated peptides to proteolytic cleavage.

[9] = target: ErbB4 (Homo sapiens, UniProt Q15303); test: Z'-LYTE biochemical assay, ErbB4 kinase inhibition; conditions: @ 1 μM
Protocol: as §2

[10] = test system: EGFR (ErbB1) in A431 human epidermoid carcinoma cells; test: Washout experiment for EGFR activity in A431 cells; type: cell-based; conditions: for enzyme inhibition after washout: A431 cells, 1 μM for 1 hr, EGF stimulation
Protocol: A431 human epidermoid carcinoma cells were grown in 6-well plates to 90% confluence and then incubated in serum-free media for 18 hr. Duplicate sets of cells were treated with 1 μM designated compound for 1 hr. One set of cells was then stimulated with 100 ng/ml EGF for 5 min, and extracts were made as described. The other set of cells was washed free of the compound with warmed compound-free medium, incubated for 2 hr, washed again, incubated another 2 hr, washed again, and then incubated another 2 hr washed again and incubated for additional 2 hr and then stimulated with EGF.

ErbB2, sequence (P04626 23-1255): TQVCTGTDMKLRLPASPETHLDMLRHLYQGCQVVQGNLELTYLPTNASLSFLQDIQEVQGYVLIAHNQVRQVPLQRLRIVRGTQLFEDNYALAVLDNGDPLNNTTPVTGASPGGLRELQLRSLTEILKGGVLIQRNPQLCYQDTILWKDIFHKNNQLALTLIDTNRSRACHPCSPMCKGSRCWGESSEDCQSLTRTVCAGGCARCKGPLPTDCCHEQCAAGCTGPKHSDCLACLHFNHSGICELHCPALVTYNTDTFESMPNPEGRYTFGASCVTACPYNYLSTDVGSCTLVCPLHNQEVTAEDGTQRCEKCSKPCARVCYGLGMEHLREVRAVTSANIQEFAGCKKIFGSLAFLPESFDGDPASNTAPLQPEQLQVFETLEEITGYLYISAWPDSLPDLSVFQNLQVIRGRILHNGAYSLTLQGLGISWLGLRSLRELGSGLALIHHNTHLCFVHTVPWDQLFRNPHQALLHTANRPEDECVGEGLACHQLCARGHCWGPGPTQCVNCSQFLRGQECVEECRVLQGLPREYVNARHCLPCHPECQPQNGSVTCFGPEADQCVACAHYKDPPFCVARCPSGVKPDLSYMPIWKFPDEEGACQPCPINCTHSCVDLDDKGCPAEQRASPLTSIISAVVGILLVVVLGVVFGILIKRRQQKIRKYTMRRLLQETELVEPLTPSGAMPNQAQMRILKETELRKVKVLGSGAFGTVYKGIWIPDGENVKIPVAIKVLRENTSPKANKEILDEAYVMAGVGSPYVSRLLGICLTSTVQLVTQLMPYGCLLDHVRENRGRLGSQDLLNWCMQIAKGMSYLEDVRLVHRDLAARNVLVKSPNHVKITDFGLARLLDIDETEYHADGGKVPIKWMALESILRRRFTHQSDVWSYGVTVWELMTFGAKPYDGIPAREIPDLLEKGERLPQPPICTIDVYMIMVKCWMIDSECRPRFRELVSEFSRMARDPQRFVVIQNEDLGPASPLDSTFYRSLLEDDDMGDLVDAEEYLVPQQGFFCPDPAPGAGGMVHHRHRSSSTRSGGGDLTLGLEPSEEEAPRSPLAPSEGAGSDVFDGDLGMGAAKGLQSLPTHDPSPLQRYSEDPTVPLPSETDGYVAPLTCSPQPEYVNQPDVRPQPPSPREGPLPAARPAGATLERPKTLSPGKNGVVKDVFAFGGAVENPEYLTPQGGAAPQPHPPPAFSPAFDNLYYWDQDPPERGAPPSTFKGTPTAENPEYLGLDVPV
T1 sequence (P00533 25-1210): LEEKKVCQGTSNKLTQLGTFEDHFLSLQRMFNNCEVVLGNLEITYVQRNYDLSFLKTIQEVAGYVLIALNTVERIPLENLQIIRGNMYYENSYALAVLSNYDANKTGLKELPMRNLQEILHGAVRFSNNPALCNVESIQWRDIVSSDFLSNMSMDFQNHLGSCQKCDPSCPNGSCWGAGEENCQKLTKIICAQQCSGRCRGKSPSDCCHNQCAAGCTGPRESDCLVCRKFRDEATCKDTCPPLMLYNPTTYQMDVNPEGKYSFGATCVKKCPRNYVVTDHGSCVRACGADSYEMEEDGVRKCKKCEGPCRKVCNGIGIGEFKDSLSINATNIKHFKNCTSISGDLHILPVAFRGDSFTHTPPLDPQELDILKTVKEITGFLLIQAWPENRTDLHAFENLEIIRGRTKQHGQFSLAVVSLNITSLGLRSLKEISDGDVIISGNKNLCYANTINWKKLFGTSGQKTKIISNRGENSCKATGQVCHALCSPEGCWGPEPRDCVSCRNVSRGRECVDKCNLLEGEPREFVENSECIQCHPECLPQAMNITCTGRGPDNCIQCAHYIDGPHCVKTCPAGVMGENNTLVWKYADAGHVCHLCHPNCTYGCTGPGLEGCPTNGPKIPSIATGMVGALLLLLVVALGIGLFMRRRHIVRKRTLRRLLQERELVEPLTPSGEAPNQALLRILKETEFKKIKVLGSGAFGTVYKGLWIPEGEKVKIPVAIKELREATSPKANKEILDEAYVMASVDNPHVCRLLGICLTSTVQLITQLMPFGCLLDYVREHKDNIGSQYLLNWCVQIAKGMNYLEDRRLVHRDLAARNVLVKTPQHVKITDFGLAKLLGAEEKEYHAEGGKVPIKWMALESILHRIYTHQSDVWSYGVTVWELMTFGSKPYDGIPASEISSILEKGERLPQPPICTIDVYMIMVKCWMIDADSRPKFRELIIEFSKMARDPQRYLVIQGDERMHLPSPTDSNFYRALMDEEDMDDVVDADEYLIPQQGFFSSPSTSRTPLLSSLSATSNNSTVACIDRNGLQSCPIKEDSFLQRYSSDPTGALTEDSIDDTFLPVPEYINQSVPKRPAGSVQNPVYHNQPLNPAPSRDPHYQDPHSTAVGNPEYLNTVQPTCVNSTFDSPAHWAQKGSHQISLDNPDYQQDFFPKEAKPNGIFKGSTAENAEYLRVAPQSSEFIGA
ErbB1, sequence (P00533 25-1210): as above
ErbB4, sequence (Q15303 26-1308): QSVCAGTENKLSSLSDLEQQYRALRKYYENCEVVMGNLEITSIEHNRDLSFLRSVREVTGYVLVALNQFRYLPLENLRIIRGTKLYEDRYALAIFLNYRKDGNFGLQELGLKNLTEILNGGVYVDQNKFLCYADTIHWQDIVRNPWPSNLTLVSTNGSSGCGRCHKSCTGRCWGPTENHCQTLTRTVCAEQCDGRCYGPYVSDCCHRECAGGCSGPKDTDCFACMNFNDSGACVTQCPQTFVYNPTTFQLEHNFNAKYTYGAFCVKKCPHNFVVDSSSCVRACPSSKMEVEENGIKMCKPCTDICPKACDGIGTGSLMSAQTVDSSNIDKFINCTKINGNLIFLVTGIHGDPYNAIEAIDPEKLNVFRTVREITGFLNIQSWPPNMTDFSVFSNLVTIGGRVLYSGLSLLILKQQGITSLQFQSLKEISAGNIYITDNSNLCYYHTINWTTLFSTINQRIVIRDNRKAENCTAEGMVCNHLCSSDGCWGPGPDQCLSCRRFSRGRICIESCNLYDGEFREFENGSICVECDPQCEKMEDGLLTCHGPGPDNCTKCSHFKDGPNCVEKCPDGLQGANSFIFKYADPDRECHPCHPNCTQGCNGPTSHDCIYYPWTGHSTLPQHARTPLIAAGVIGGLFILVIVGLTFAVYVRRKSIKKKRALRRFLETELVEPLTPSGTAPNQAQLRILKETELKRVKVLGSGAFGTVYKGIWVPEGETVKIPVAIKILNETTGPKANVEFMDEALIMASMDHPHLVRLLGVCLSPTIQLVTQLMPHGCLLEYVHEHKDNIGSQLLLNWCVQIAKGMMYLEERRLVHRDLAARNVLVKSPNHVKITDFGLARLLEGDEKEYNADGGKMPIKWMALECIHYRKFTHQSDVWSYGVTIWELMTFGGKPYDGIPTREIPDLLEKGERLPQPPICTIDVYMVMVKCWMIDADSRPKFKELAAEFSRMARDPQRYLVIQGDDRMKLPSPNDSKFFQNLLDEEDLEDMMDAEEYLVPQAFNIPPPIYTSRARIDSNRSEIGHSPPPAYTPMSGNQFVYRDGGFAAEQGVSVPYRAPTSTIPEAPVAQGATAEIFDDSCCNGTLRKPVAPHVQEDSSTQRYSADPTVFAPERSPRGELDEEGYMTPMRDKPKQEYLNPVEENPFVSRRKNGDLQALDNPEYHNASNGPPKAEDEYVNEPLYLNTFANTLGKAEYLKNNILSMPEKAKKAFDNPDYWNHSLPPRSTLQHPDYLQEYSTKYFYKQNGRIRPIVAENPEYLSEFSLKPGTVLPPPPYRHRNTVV

Row | SMILES | IC50 [1] | IC50 [2] | IC50 [3] | IC50 [5] | IC50 [6] | inhibition at 0.01 µM [7] | inhibition at 1 µM [8] | inhibition at 1 µM [9] | inhibition at 0.1 µM [7] | inhibition at 0.1 µM ([8]; @ 100 nM) | inhibition at 1 µM ([7]; @ 1 μM) | BTK Inhibition Type [4] | enzyme inhibition after washout [10] | type of binding to ErbB1 (irreversible / reversible) ([10]; washout experiment, FIG. 2)
1 | C=CC(=O)Nc1cccc(Nc2cc(Nc3ccc(F)c(Cl)c3)ncn2)c1 [I-2, N-{3-[6-(3-chloro-4-fluorophenylamino)-pyrimidin-4-ylamino]phenyl}-2-propenamide] | ≤ 10 nM | 10 to 100 nM |  | ≤ 10 nM | ≤ 10 nM | 75% | 96% | 75% | 98% | 39% |  |  |  | 
2 | CCC(=O)Nc1cccc(Nc2cc(Nc3cccc(Br)c3)ncn2)c1 [I^R-3, N-{3-[6-(3-bromophenylamino)-pyrimidin-4-ylamino]phenyl}-propionamide, reference compound] |  |  |  |  |  |  |  |  |  |  |  |  | washed away | 
3 | C=CS(=O)(=O)Nc1cccc(Nc2cc(Nc3ccc(F)c(Cl)c3)ncn2)c1 [I-3, N-{3-[6-(3-chloro-4-fluorophenylamino)-pyrimidin-4-ylamino]phenyl}-ethenesulfonamide] | ≤ 10 nM | 10 to 100 nM |  | ≤ 10 nM | ≤ 10 nM | 56% | 89% | 95% | 96% |  |  |  |  | 

More lines, main results first:

Row | IC50 [1] | IC50 [2] | IC50 [3] | IC50 [5] | IC50 [6] | inhibition at 0.01 µM [7] | inhibition at 1 µM [8] | inhibition at 1 µM [9] | inhibition at 0.1 µM [7] | inhibition at 0.1 µM ([8]; @ 100 nM) | inhibition at 1 µM ([7]; @ 1 μM) | SMILES | BTK Inhibition Type [4] | enzyme inhibition after washout [10] | type of binding to ErbB1 (irreversible / reversible) ([10]; washout experiment, FIG. 2)
4 | ≤ 10 nM | ≤ 10 nM | ≤ 10 nM | 10 to 100 nM |  |  |  |  |  |  |  | CN(C)C/C=C/C(=O)Nc1cccc(Nc2cc(Oc3ccc(Oc4ccccc4)cc3)ncn2)n1 [I-82] | irreversible |  | 
5 | ≤ 10 nM | ≤ 10 nM | 100 to 1000 nM | ≤ 10 nM | ≤ 10 nM | 100% | 86% | 95% |  |  |  | C=CS(=O)(=O)Nc1cccc(Nc2cc(Nc3cccc(C)c3)ncn2)c1 [I-5, N-{3-[6-(3-methylphenylamino)-pyrimidin-4-ylamino]phenyl}-ethenesulfonamide] |  |  | 
6 | ≤ 10 nM | ≤ 10 nM | ≥ 1000 nM | 10 to 100 nM | 10 to 100 nM |  | 89% | 94% |  |  | 95% | Cc1cccc(Nc2cc(Nc3cccc(NC(=O)/C=C/CN(C)C)c3)ncn2)c1 [I-17, (E)-N-{3-[6-(3-methylphenylamino)-pyrimidin-4-ylamino]phenyl}-4-dimethylamino-2-butenamide] |  |  | 
7 | 10 to 100 nM | 100 to 1000 nM |  | 1000 to 10000 nM | 10 to 100 nM | 49% | 84% | 97% | 100% |  |  | C=CC(=O)Nc1cccc(Nc2cc(Nc3ccc(OCc4cccc(F)c4)c(Cl)c3)ncn2)c1 [I-6, N-{3-[6-(3-chloro-4-(3-fluorophenyl)methoxyphenylamino)-pyrimidin-4-ylamino]phenyl}-2-propenamide] |  |  | 
8 | ≤ 10 nM | 1000 to 10000 nM |  | ≥ 10000 nM |  |  |  |  |  |  |  | C=CC(=O)Nc1ccc(Nc2cc(Nc3cccc(Br)c3)ncn2)cc1 [I-93, N-(4-[6-(3-bromophenylamino)-pyrimidin-4-ylamino]phenyl)-2-propenamide] |  | washed away | reversibly binds to ErbB1
